In patent US7105529B2, “Substituted oxindole derivatives as protein tyrosine and as protein serine/threonine kinase inhibitors and compositions and methods of treating chemotherapy and radiation therapy side effects” (SmithKline Beecham Corporation, priority 1997, dated 2006):
Where two headings read alike, the source gives them in different places.

Legend:
Type in all cases: cell-based
[1] = system: human diploid fibroblasts (HDF-3); test: G1-S progression assay (BrdU incorporation); details: read-out: G1/S Chkpt (IC50)
Protocol: This assay is designed to determine the ability of compounds to inhibit progression of cells from G1 into S-phase. […] The protocol is as follows: • (1) Grow human diploid fibroblasts (HDF-3) in 100 mm tissue culture dish to confluency. (2) Plate 6–7×10^3 cells/well in a 96 well plate in 100 μl of DMEM. […] Dilute compound in DMEM containing DMSO and add 100 μl to each well so that the DMSO conc. is 0.6–0.8% in 200 μl final volume. (4) Two h after addition of compound, add 20 μl of 100 μM Br dU (final conc. 10 μM) Make 100 μM solution in DMEM from 10 mM stock solution. (5) After 4 h, add 200 μl PBS to each well and remove the contents of the wells by inverting the plate and soaking on to the paper towel. Repeat the washing step three times, with 400 ul PBS each time. (6) Fix the cells and denature the DNA by adding 200 μl fixation/denaturation solution to each well for 30–40 min. (7) Remove the fixation/denaturation solution by tapping the plate on the paper towel and add 75 μl of anti BrdU peroxidase antibody to each well. (dilute the antibody to 0.1 U/mL from 15 U/mL stock in PBS containing 1% BSA, Fraction V). Incubate the plate O/N at 4° C. (8) Remove the antibody solution and wash wells four times with 400 μl of PBS. Let the wash solution stay for 3–4 min during each wash. (9) Drain the wells and add 100 μl of chemiluminiscence Elisa reagent (Prepare the reagent 15–20 min before use to bring it to rt by mixing 100 parts of reagent A with 1 part of reagent B). (10) Read the plate in a luminometer. Take 2–3 readings within 6–7 min. Perform the following controls: [table] Deoxybromouridine (BrdU), anti BrdU peroxidase antibodies, fixation/denaturation solution, chemiluminiscence reagent and BSA Fraction V, were obtained from Boehringer Mannheim. The 96-well white plate with clear bottom were purchased from Corning Costar Corporation. Dulbecco's Modified Eagle Medium containing high glucose, L-glutamine and pyridoxine HCl was obtained from GIBCO BRL.

[2] = system: RKO (human colon adenocarcinoma cell line); test: MTT assay, RKO; details: 72 h
Protocol: Compounds are tested for their ability to inhibit cell proliferation and cell viability. The metabolic conversion of 3-(4,5-dimethylthiazol-2-yl)-2,5-diphenyltetrazolium bromide (MTT, Sigma #M2128) to a reduced form is a commonly used measure of cellular viability. Following is the procedure: Cells are maintained in 75 cm^2 tissue culture flasks until ready for use. The cells are grown and plated for the assay in Dulbecco's modified Eagle's media (DMEM) containing 10% fetal bovine serum. For example, the following cell lines can be used: a) human foreskin fibroblasts (HFF); b) HT29 (human colon carcinoma cell line); c) MDA-MB468 (human breast carcinoma cell line); d) RKO (human colon adenocarcinoma cell line); e) SW620 (human colon carcinoma cell line); f A549 (human lung carcinoma cell line); and g) MIA PACA (human pancreatic carcinoma cell line). Cells are maintained at 37° C. in 10% CO2, 90% humidified air. Cells are plated in 96-well tissue culture plates at the densities listed below. 100 μL of cell suspension is added to each well of the 96-well plate except the top row of the plate which contains no cells and serves as a reference for the spectrophotometer. [table] Cells are incubated overnight in DMEM containing 10% fetal bovine serum at 37° C. in 10% CO2, 90% humidified air prior to dosing. […] Compounds with solubilities of less than 30 μM are dosed at the highest soluble concentration. Stock solutions of compounds are made in 100% dimethyl sulfoxide (DMSO). Stock solutions are diluted in DMEM containing 100 μg/ml gentamicin and 0.3 to 0.6% DMSO at the twice the highest concentration to be placed on the cells. If compounds have been dissolved in DMSO the final concentration of DMSO on the cells is kept below 0.3%. Three-fold serial dilutions are performed on each compound to prepare 10 concentrations of the compound for dosing. 100 μl of diluted compound is added to the 100 μl of media currently on the dish. […] Quantitation of metabolic reduction of MTT in each plate is performed by reading optical density at 570 nm wavelength on a Molecular Devices UVmax microplate reader. […]

[3] = system: HDF normal diploid fibroblast cells; test: MTT assay, HDF; details: 72 h
Protocol: Compounds are tested for their ability to inhibit cell proliferation and cell viability. The metabolic conversion of 3-(4,5-dimethylthiazol-2-yl)-2,5-diphenyltetrazolium bromide (MTT, Sigma #M2128) to a reduced form is a commonly used measure of cellular viability. Following is the procedure: Cells are maintained in 75 cm^2 tissue culture flasks until ready for use. The cells are grown and plated for the assay in Dulbecco's modified Eagle's media (DMEM) containing 10% fetal bovine serum. For example, the following cell lines can be used: a) human foreskin fibroblasts (HFF); b) HT29 (human colon carcinoma cell line); c) MDA-MB468 (human breast carcinoma cell line); d) RKO (human colon adenocarcinoma cell line); e) SW620 (human colon carcinoma cell line); f A549 (human lung carcinoma cell line); and g) MIA PACA (human pancreatic carcinoma cell line). Cells are maintained at 37° C. in 10% CO2, 90% humidified air. Cells are plated in 96-well tissue culture plates at the densities listed below. 100 μL of cell suspension is added to each well of the 96-well plate except the top row of the plate which contains no cells and serves as a reference for the spectrophotometer. [table] Cells are incubated overnight in DMEM containing 10% fetal bovine serum at 37° C. in 10% CO2, 90% humidified air prior to dosing. […] Compounds with solubilities of less than 30 μM are dosed at the highest soluble concentration. Stock solutions of compounds are made in 100% dimethyl sulfoxide (DMSO). Stock solutions are diluted in DMEM containing 100 μg/ml gentamicin and 0.3 to 0.6% DMSO at the twice the highest concentration to be placed on the cells. If compounds have been dissolved in DMSO the final concentration of DMSO on the cells is kept below 0.3%. Three-fold serial dilutions are performed on each compound to prepare 10 concentrations of the compound for dosing. 100 μl of diluted compound is added to the 100 μl of media currently on the dish. For each concentration of compound, 2–4 replicate wells are prepared. Cells are returned to incubator and allowed to proliferate in the presence of compound for 72 h before addition of MTT. […] After 4 h incubation the media, compound and MTT mixture is aspirated from the plates and 100 μl of 100% DMSO is added to each well in addition to 25 μl of Sorenson's Buffer (0.1M glycine, 0.1M NaCl, pH 10.5). Quantitation of metabolic reduction of MTT in each plate is performed by reading optical density at 570 nm wavelength on a Molecular Devices UVmax microplate reader. […] HDF are normal diploid fibroblast cells. RKO are colon adenocarcinoma cells and MES/SA are ovarian carcinoma cells.

| Structure (SMILES) | IC50 ([1]; Homo sapiens, Fibroblast) | IC50 ([2]; Homo sapiens) | IC50 ([3]; Fibroblast) | IC50 [1] | IC50 [2] | IC50 [3] |
| --- | --- | --- | --- | --- | --- | --- |
| COC(=O)c1ccc2c(c1)/C(=C/Nc1ccc(S(N)(=O)=O)cc1)C(=O)N2 [Example 27] | 1100 to 5000 nM | 1100 to 5000 nM | 1100 to 5000 nM | – | – | – |
| NS(=O)(=O)c1ccc(NN=C2C(=O)Nc3ccc(-c4cnco4)cc32)cc1 [Example 36] | 600 to 1000 nM | 600 to 1000 nM | 1100 to 5000 nM | – | – | – |
| O=C1Nc2ccc3ncsc3c2C1=CNc1ccc(S(=O)(=O)NCc2ccncc2)cc1 [Example 104, 4-[(7-Oxo-6,7-dihydro-1-thia-3,6-diaza-as-indacen-8-ylidenemethyl)amino]-N-pyridinyl-4-yl-methyl benzenesulfonamide] | – | – | – | 1100 to 5000 nM | 1100 to 5000 nM | 1100 to 5000 nM |
